From US6136842A, “Sulphur derivatives comprising an amide bond, method for preparing same, use thereof as drugs, and pharmaceutical compositions containing such derivatives” (Hoechst Marion Roussel, priority 1996, dated 2000)

Each compound was assayed against T1, endothelin-converting enzyme (ECE) (Homo sapiens, UniProt P42892) (assay: Determination of the inhibitory effect of the endothelin-converting enzyme (ECE): cleavage of (2,3-^3 H)propionyl-b-ET-1(19-35)). Conditions: purified ECE, pre-incubated 30 minutes at 37° C., Tris maleate buffer pH=6.5, incubation one hour at 37° C.
T1 sequence (P42892 1-770): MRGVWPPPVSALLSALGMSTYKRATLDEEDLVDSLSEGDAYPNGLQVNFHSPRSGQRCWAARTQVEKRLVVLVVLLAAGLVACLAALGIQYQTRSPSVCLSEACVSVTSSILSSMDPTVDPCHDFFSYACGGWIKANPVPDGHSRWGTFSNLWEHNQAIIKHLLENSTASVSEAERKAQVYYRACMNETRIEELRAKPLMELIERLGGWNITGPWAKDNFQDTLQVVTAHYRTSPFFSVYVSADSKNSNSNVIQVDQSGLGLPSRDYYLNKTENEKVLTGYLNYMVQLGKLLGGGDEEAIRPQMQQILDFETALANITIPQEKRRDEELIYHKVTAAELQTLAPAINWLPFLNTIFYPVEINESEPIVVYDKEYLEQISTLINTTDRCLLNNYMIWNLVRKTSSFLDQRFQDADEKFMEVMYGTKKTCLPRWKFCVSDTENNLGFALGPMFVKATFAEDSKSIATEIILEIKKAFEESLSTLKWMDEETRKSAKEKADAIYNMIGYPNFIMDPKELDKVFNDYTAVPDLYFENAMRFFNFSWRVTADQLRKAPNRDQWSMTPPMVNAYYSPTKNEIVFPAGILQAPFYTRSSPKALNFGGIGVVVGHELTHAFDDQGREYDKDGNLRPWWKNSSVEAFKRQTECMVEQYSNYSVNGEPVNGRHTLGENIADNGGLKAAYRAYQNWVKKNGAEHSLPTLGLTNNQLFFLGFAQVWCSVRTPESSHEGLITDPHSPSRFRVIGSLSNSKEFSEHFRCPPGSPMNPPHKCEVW
Format: biochemical
From the text: Determination of the inhibitory effect of the endothelin-converting enzyme (ECE) A test is used, in which the product (2,3-^3 H)propionyl-b-ET-1(19-35) prepared as indicated below in a) is cleaved by ECE into the product (2,3-^3 H)propionyl-b-ET-1(19-21) in the presence of product P of which the inhibitory activity of ECE one wishes to determine as indicated below in b): the inhibitory activity of ECE of the product P will therefore be accordingly as high as the quantity of product of formula (II) formed, determined by counting the radioactivity, will be low. The operation is carried out as follows: b) Determination of the inhibitory activity of the endothelin-converting enzyme (ECE) […] The reaction is initiated by the addition of 10 μl of (2,3-^3 H)propionyl-b-ET-1(-19-35) prepared as indicated above in a), at a final concentration of 1.8.10^-12 M After incubation for one hour at 37° C., the reaction is stopped by the addition of 600 μl of ethyl acetate and the (2,3-^3 H)propionyl-b-ET-1(19-21) is extracted by mechanical agitation for 2 minutes. 300 μl of the organic phase is removed, 5 ml of liquid scintillator is added and the radioactivity is counted for 1 minute with a liquid scintillation counter. Each measurement is carried out in triplicate except for the ECE control (control enzyme, without the product the ECE inhibitory activity of which one wishes to test), for which the measurement is carried out six times. The percentage inhibition is calculated by establishing the relationship: [formula] The blank is carried out starting with the solution obtained without enzyme. The test was validated by its application to known inhibitors i.e. P1 which is phosphoramidon and P2 which is N-(phenylethylphosphonyl)-Leu-Trp (TAKEDA). From the cpm's obtained and by plotting the graph of the percentage of inhibition relative to the concentration of inhibitor (nM), the IC50 is calculated which therefore corresponds to the concentration which causes a 50% inhibition of ECE.

Row | IC50 | Structure (SMILES)
1 | 120 nM | O=C(N[C@@H](Cc1ccc(-c2cccs2)cc1)C(=O)O)C(CS)Cc1cccc(Br)c1 (single isomer, unassigned) [Example 7A]
2 | 150 nM | O=C(N[C@@H](Cc1c[nH]c2c(OCc3ccccc3)cccc12)C(=O)O)C(CS)Cc1cccc(Br)c1 (stereo partly drawn) [Example 8, N-[3-(3-bromophenyl)-2-(mercaptomethyl)-1-oxopropyl]-7-(phenylmethoxy)-Tryptophan]
3 | 70 nM | O=C(N[C@@H](Cc1ccc(-c2ccccc2)cc1)c1nnn[nH]1)[C@@H](CS)Cc1ccccc1 [Example 9, (S,S)N-(2-((1,1'-biphenyl)-4-yl)-1-(1H-tetrazol-5-yl)ethyl)-alpha-(mercaptomethyl)-benzenepropanamide]
